The values below are quoted from earlier work in patent US7183094B2, “Bacterial mycothiol S-conjugate amidase family” (The Regents of the University of California, priority 1999, dated 2007).

The test system of this data set is M. smegmatis mutant blocked in mycothiol production. The conditions noted are these: Newton et al. (1999); cited from earlier work.

SMILES strings stand for the structures.

`CO[C@H]1/C=C/O[C@@]2(C)Oc3c(C)c(O)c4c(O)c(c(/C=N/N5CCN(C)CC5)c(O)c4c3C2=O)NC(=O)/C(C)=C\C=C\[C@H](C)[C@H](O)[C@@H](C)[C@@H](O)[C@@H](C)[C@H](OC(C)=O)[C@@H]1C` [rifampin]: the “increased sensitivity of the mutant” value is 20 fold.
